Measurements from publication PMC11284088, “Synthesis and biochemical characterization of naphthoquinone derivatives targeting bacterial histidine kinases” (The Journal of Antibiotics, 2024).

Experiments:
B. subtilis 168 strain = assay: MIC, standard microtiter broth dilution; assay type: cell-based, Bacillus subtilis; parameters: key to MIC: MIC + antibacterial activity against Bacillus subtilis 168
Experimental: The minimum inhibitory concentrations (MICs) were determined using the standard microtiter broth dilution method, as recommended by the guidelines of the Clinical Laboratory Standards Institute.

EnvZ = molecular target: T1, EnvZ (Escherichia coli, UniProt P0AEJ4); assay: Inhibition of EnvZ autophosphorylation; assay type: biochemical, Escherichia coli K12; details: EnvZ; 1 µM HK, 40 µM ATP, 30 min at 25 °C; read-out: IC50
T1 construct: pETEcEnvZ(223-450); His6 (C); made in house; host or cells: E. coli BL21(DE3)
T1 sequence (P0AEJ4 223-450): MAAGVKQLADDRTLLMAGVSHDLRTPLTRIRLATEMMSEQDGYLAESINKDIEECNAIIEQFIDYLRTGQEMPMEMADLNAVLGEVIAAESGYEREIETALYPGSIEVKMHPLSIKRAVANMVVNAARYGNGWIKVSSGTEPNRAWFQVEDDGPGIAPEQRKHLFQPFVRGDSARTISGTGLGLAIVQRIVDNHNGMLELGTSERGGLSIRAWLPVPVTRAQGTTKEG
Experimental: (§1) Autophosphorylation of WalK was conducted at 0.5 or 1 µM in a reaction mixture comprising 50 mM Tris-HCl (pH 8.5), 100 mM KCl, 5 mM MgCl2, 100 mM NH4Cl, 5% DMSO, and 40 µM ATP. The total reaction volume was 40 µl, and the incubation lasted for 30 min at 25 °C. To terminate the reaction, 40 µl of 2 × SDS-PAGE sample buffer was added, followed by a 10-min incubation at 37 °C. Subsequently, SDS-PAGE (10% acrylamide) was performed, and the samples were subjected to Western blotting using a PVDF membrane (Bio-Rad 1620177). The primary antibody used was anti-N3-phosphohistidine antibody (clone SC56-2) (EDM Millipore Corp), and the secondary antibody was goat anti-rabbit IgG-HRP (Abcam). A 2% bovine serum albumin (Sigma-Aldrich) solution served as the blocking reagent. Signals originating from phosphorylated HKs were detected using the HRP substrate (Immobilon Western Chemiluminescent HRP substrate, Millipore) and the Multi Imager II Multi Box (Bio Tools). Signal intensities were quantified with Image Analysis Software CS Analyzer 4 (ATTO). IC50 values (50% inhibitory concentrations) were determined using Prism 7 software (GraphPad).
(§2) In the assessment of naphthoquinone derivatives, the initial screening for inhibitory activity against WalK autophosphorylation was conducted at 50 or 100 µg ml^−1. Compounds displaying inhibitory activity were further examined to ascertain their IC50 values against WalK. For the chosen compounds, inhibition against EvgS, EnvZ, PhoQ, and CpxA HKs was also assessed. These reactions involved the use of 1 µM HK, 40 µM ATP, and a 30 min incubation at 25 °C.

CpxA = molecular target: T2, CpxA (Escherichia coli, UniProt P0AE82); assay: Inhibition of CpxA autophosphorylation; assay type: biochemical, Escherichia coli K12; details: CpxA; 1 µM HK, 40 µM ATP; read-out: IC50
T2 construct: cytoplasmic regions of PhoQ (261-486) and CpxA (188-457); His6 (C); made in house; host or cells: E. coli BL21(DE3)
T2 sequence (P0AE82 188-457): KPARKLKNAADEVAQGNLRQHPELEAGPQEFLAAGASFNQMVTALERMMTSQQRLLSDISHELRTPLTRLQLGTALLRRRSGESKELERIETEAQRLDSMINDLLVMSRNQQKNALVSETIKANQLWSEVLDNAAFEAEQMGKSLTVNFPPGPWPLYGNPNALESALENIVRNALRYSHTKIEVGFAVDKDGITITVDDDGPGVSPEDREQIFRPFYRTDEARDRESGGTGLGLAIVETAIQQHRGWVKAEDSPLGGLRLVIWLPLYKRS
Experimental: as §1, with “The” for “Autophosphorylation of WalK was conducted at 0.5 or 1 µM in a reaction mixture comprising 50 mM Tris-HCl (pH 8.5), 100 mM KCl, 5 mM MgCl2, 100 mM NH4Cl, 5% DMSO, and 40 µM ATP. The”
as §2, with “These reactions involved the use of 1 µM HK, 40 µM ATP, and a 30 min incubation at 25 °C.” left out

[1] = B. subtilis 168 strain grown in LB broth at 37 °C for 18 h
[2] = summary class, Bacillus subtilis 168

In the case of `O=C1C(Cl)=C(Nc2ccc(Cl)c(O)c2)C(=O)c2c(O)ccc(O)c21` [2h, 2-chloro-3-((4-chloro-3-hydroxyphenyl)amino)-5,8-dihydroxynaphthalene-1,4-dione], the MIC (B. subtilis 168 strain; [1]) is reported as 8 µg/mL, the MIC (B. subtilis 168 strain; B. subtilis 168 strain grown in LB broth at 37 °C for 18 h, listed as C00015) is reported as 8 µg/mL and the MIC (B. subtilis 168 strain; [2]) is reported as “+”. It also gave an IC50 (EnvZ) of 47.2 µM and an IC50 (CpxA) of 19.5 µM.
With `CC(C)(C)OC(=O)Nc1cccc(NC2=C(Cl)C(=O)c3c(O)ccc(O)c3C2=O)c1` [2l, tert-butyl (3-((3-chloro-5,8-dihydroxy-1,4-dioxo-1,4-dihydronaphthalen-2-yl)amino)phenyl)carbamate] the MIC (B. subtilis 168 strain; [1]) was 8 µg/mL, the MIC (B. subtilis 168 strain; [2]) was “+” and the IC50 (EnvZ) was 26.8 µM. For the same compound, the IC50 (CpxA) was 32.7 µM.
With `Cc1noc2c1C(=O)c1c(O)ccc(O)c1C2=O` [3b, 5,8-dihydroxy-3-methylnaphtho[2,3-d]isoxazole-4,9-dione] the MIC (B. subtilis 168 strain; [1]) was 0.5 µg/mL, the “antibacterial (antimicrobial) activity against B. subtilis” value (B. subtilis 168 strain; in words) was “equal to waldiomycin or even stronger” and the MIC (B. subtilis 168 strain; [2]) was “+”. It also gave an IC50 (EnvZ) of 77.3 µM and an IC50 (CpxA) of 104 µM.
